Data taken from ChEMBL document CHEMBL5316313, “Discovery of Novel 3-Phenylpiperidine Derivatives Targeting the β-Catenin/B-Cell Lymphoma 9 Interaction as a Single Agent and in Combination with the Anti-PD-1 Antibody for the Treatment of Colorectal Cancer” (J Med Chem, 2023).
The source made the active and inactive calls. The rule behind the calls is not given here.

Legend:
CT26 [1] = settings: Mus musculus, BALB/c, dose 30.0 mg/kg, route ip
Description: In vivo inhibition of Wnt signaling pathway in mouse CT26 cells implanted in BALB/c mouse assessed as reduction in Axin2 mRNA expression level in tumor at 30 mg/kg, ip QD by qRT-PCR analysis

HCT-116 [2] = test: Induction of apoptosis in Wnt-dependent human HCT-116 cells assessed as viable cells at 20 uM incubated for 24 hrs by Annexin V-Alexa Fluor 647/PI staining based flow cytomtery (Rvb=69.5%); format: functional; settings: read-out: Activity
CT26 [3] = test: Synergistic antitumor activity in mouse CT26 cells xenografted in BALB/c mouse assessed as decrease in Foxp3-positive Treg cells in TIME tumor cells at 30 mg/kg, ip QD in presence of anti-PD-1 antibody cotreatment at 10 mg/kg,ip BIW by flow cytomtery; format: functional, organism-based
CT26 [4] = test: Antitumor activity in mouse CT26 cells xenografted in BALB/c mouse assessed as increase in Cd8 mRNA expression level in tumor at 30 mg/kg, ip QD by qRT-PCR analysis; format: functional, organism-based
HEK293 = test: Induction of apoptosis in Wnt-independent human HEK293 cells assessed as late apoptotic cells at 10 uM incubated for 24 hrs by Annexin V-Alexa Fluor 647/PI staining based flow cytomtery (Rvb=10.5%); format: functional
CT26 [5] = test: Antitumor activity in mouse CT26 cells xenografted in BALB/c mouse assessed as increase in CD8+ T cell infiltration into tumor at 30 mg/kg, ip QD by flow cytometry; format: functional, organism-based
[6] = Toxicity in BALB/c mouse xenografted with mouse CT26 cells assessed as adverse effect at 30 mg/kg, ip QD and measured upto 9 days in presence of anti-PD-1 antibody cotreatment at 10 mg/kg,ip BIW; format: organism-based; settings: in vivo, 216 h, time < 9 day
HCT-116 [7] = test: Induction of apoptosis in Wnt-dependent human HCT-116 cells assessed as early apoptotic cells at 10 uM incubated for 24 hrs by Annexin V-Alexa Fluor 647/PI staining based flow cytomtery (Rvb=14.3%); format: functional
CT26 [8] = test: Antitumor activity in mouse CT26 cells xenografted in BALB/c mouse assessed as increase in GZMB mRNA expression level in tumor at 30 mg/kg, ip QD by qRT-PCR analysis; format: functional, organism-based
EL4 = test: Cytotoxicity against CFSE labeled SIINFEKL activated OT-1 mouse derived EL4 cells assessed as change in antigen specific cell viability at 1 to 10 uM preincubated with compound for 24 hrs followed by co-cultured with C57BL/6 mouse splenocyte derived CD8+ T cells in presence of anti-PD-1 antibody cotreatment by flow cytometry; format: functional, cell-based; settings: dose 1-10 µM

## CC(C)c1ccc(-c2cccc(S(=O)(=O)N3CCCC(c4cccc(OC(C)(C)C(=O)NS(=O)(=O)c5ccc(C(F)(F)F)cc5)c4)C3)c2)cc1 (stereo not given)
CT26 [1]
  inhibition: Active
HCT-116 [2]
  viability at 20 µM: 37.3%
CT26 [3]
  Activity: Active
CT26 [4]
  Activity: Active
HEK293
  Activity: 14.9%
CT26 [5]
  Activity: Active
[6]
  Activity: Non-Toxic
HCT-116 [7]
  Activity: 16.7%
CT26 [8]
  Activity: Active
EL4
  Activity: Dose-Dependent Effect
